Our source for the IC50 values is patent US12240862B2, “Inhibitors of peptidylarginine deiminases” (Gilead Sciences, Inc., priority 2020, dated 2025).

The target in the assay is T1, human PAD4 (Homo sapiens, UniProt Q9UM07).
T1 construct: human PAD4 (NM_012387), A2P663, was PCR amplified; His-SUMO (N, cleaved yes); made in house; host or cells: E. coli BL21(DE3)
T1 sequence (Q9UM07 2-663): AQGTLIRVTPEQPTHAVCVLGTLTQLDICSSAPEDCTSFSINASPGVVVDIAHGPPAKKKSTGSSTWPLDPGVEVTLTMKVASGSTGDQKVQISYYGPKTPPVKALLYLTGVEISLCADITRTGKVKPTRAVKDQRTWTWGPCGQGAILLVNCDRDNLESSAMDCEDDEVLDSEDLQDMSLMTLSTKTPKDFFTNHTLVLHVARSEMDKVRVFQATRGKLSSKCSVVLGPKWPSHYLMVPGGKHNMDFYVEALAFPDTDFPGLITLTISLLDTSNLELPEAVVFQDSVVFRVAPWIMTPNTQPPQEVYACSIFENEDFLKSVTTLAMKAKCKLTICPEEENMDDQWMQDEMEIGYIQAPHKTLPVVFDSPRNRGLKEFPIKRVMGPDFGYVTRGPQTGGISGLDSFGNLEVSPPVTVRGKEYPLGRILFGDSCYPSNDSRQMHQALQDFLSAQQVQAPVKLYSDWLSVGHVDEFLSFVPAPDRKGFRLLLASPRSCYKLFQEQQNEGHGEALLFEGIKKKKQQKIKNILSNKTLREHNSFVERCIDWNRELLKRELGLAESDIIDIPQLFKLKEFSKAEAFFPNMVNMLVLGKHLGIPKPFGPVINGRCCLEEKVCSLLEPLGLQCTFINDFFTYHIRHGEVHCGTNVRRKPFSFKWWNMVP
In words: In vitro PAD4 BAEE biochemical assay. The note with it: human PAD4, BAEE substrate; 5 nM PAD4, 2 mM calcium chloride, 3 mM BAEE; geometric mean of multiple experiments. A digest of the protocol: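 Tag-free recombinant hPAD4 (5 nM), 2 mM CaCl2, 3 mM BAEE, 50 mM MOPS pH 7.6, 2 mM DTT; 30 min compound preincubation, 2 h reaction, all 25 °C. EDTA quench; ammonia read via o-phthalaldehyde amine coupling, 1 h.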
For the compound `CCc1ccc2cc(-c3nc4cc(C(=O)N5CCC[C@@H](N)C5)cc(OC)n4c3C3CCC3)n(CC3CC3)c2n1` [Example 576, [(3~{R})-3-aminopiperidin-1-yl]-[3-cyclobutyl-2-[1-(cyclopropylmethyl)-6-ethylpyrrolo[2,3-b]pyridin-2-yl]-5-methoxyimidazo [1,2-a]pyridin-7-yl]methanone], the concentration for half-maximal inhibition (IC50) came to 2150 nM.

Consider `COc1cc(C(=O)N2[C@H]3CC[C@@H]2[C@H](N)C3)cc2nc(-c3cc4ccc([C@@H](C)NC(=O)c5cccnc5)nc4n3CC3CC3)c(C)n12` [Example 120, ~{N}-[(1~{R})-1-[2-[7-[(1~{R},2~{R},4~{S})-2-amino-7-azabicyclo[2.2.1]heptane-7-carbonyl]-5-methoxy-3-methylimidazo [1,2-a]pyridin-2-yl]-1-(cyclopropylmethyl)pyrrolo [2,3-b]pyridin-6-yl]ethyl]pyridine-3-carboxamide], for which the concentration for half-maximal inhibition (IC50) worked out at 30.1 nM.

As to `COc1cc(C(=O)N2CCC[C@@H](N)C2)cc2nc(-c3cc4ccc(Cl)nc4n3CC3CC3)c(C)n12` [Example 599, [(3~{R})-3-aminopiperidin-1-yl]-[2-[6-chloro-1-(cyclopropylmethyl)pyrrolo [2,3-b]pyridin-2-yl]-5-methoxy-3-methylimidazo[1,2-a]pyridin-7-yl]methanone], the IC50 was found to be 1910 nM.

On to `COc1cc(C(=O)N2CCC[C@@H](N)C2)cc2nc(-c3cc4ccc(C(C)(F)F)nc4n3CC3CC3)c(C)n12` [Example 596, [(3~{R})-3-aminopiperidin-1-yl]-[2-[1-(cyclopropylmethyl)-6-(1,1-difluoroethyl)pyrrolo [2,3-b]pyridin-2-yl]-5-methoxy-3-methylimidazo [1,2-a]pyridin-7-yl] methanone], for which the IC50 was found to be 997 nM. Next, `COc1cc(C(=O)N2CCC[C@@H](N)C2)cc2nc(-c3cc4ccc(-c5cccc6c5CN(C)C6=O)nc4n3CC3CC3)c(C)n12` [Example 601, 4-[2-[7-[(3~{R})-3-aminopiperidine-1-carbonyl]-5-methoxy-3-methylimidazo[1,2-a]pyridin-2-yl]-1-(cyclopropylmethyl)pyrrolo[2,3-b]pyridin-6-yl]-2-methyl-3~{H}-isoindol-1-one]: 6880 nM.

For the compound `COc1cc(C(=O)N2[C@H]3CC[C@@H]2[C@H](N)C3)cc2nc(-c3cc4ccc(OCC(=O)N(C)C)nc4n3CC3CC3)c(C)n12` [Example 624, 2-[2-[7-[(1~{R},2~{R}, 4~{S})-2-amino-7-azabicyclo[2.2.1]heptane-7-carbonyl]-5-methoxy-3-methylimidazo[1,2-a]pyridin-2-yl]-1-(cyclopropylmethyl)pyrrolo [2,3-b]pyridin-6-yl] oxy-~{N},~{N}-dimethylacetamide], the half-inhibitory concentration (IC50) came out at 114 nM. Then `COc1cc(C(=O)N2[C@H]3CC[C@@H]2[C@H](N)C3)cc2nc(-c3cc4ccc([C@@H](C)NC(=O)C56CC(C5)C6)nc4n3CC3CC3)c(C)n12` [Example 160, ~{N}-[(1~{R})-1-[2-[7-[(1~{R},2~{R},4~{S})-2-amino-7-azabicyclo[2.2.1]heptane-7-carbonyl]-5-methoxy-3-methylimidazo [1,2-a]pyridin-2-yl]-1-(cyclopropylmethyl)pyrrolo [2,3-b]pyridin-6-yl]ethyl]bicyclo[1.1.1]pentane-1-carboxamide], with 53.2 nM; and `CCc1ccc2cc(-c3nc4cc(C(=O)N5C[C@@]6(N)CC[C@@H]5C6)cc(OC)n4c3C)n(CC3CC3)c2n1` [Example 588, [(1~{R},4~{R})-4-amino-2-azabicyclo[2.2.1]heptan-2-yl]-[2-[1-(cyclopropylmethyl)-6-ethylpyrrolo[2,3-b]pyridin-2-yl]-5-methoxy-3-methylimidazo[1,2-a]pyridin-7-yl]methanone], with 10600 nM; and `COc1cc(C(=O)N2[C@H]3CC[C@@H]2[C@H](N)[C@H](O)C3)cc2nc(-c3cc4ccc(N(C(F)F)S(C)(=O)=O)nc4n3CC3CC3)c(C)n12` [Example 311, ~{N}-[2-[7-[(1~{R}, 2~{S},3~{R},5~{S})-2-amino-3-hydroxy-8-azabicyclo[3.2.1]octane-8-carbonyl]-5-methoxy-3-methylimidazo [1,2-a]pyridin-2-yl]-1-(cyclopropylmethyl)pyrrolo [2,3-b]pyridin-6-yl]-~{N}-(difluoromethyl) methanesulfonamide], with 383 nM. Then `COc1cc(C(=O)N2[C@H]3CC[C@@H]2[C@H](N)C3)cc2nc(-c3cc4ccc([C@@H](C)NC(=O)C5CCOCC5)nc4n3CC3CC3)c(C)n12` [Example 150, ~{N}-[(1~{R})-1-[2-[7-[(1~{R},2~{R},4~{S})-2-amino-7-azabicyclo[2.2.1]heptane-7-carbonyl]-5-methoxy-3-methylimidazo [1,2-a]pyridin-2-yl]-1-(cyclopropylmethyl)pyrrolo [2,3-b]pyridin-6-yl]ethyl] oxane-4-carboxamide], with 41 nM; and `COc1cc(C(=O)N2[C@H]3CC[C@@H]2[C@H](N)C3)cc2nc(-c3cc4ccc([C@@H](C)NC(=O)CC5(OC)CC5)nc4n3CC3CC3)c(C)n12` [Example 33, ~{N}-[(1~{R})-1-[2-[7-[(1~{R},2~{R}, 4~{S})-2-amino-7-azabicyclo[2.2.1]heptane-7-carbonyl]-5-methoxy-3-methylimidazo [1,2-a]pyridin-2-yl]-1-(cyclopropylmethyl)pyrrolo[2,3-b]pyridin-6-yl]ethyl]-2-(1-methoxycyclopropyl) acetamide], with 69.8 nM; and `CS(=O)(=O)N(c1ccc2cc(-c3nc4cc(C(=O)N5[C@@H]6CC[C@@H](N)[C@H]5CC6)ccn4c3C3CC3)n(CC3CC3)c2n1)C(F)F` [Example 397], with 74.8 nM. Next, `COc1cc(C(=O)N2[C@H]3CC[C@@H]2[C@H](N)C3)cc2nc(-c3cc4ccc([C@@H](C)NC(=O)c5ccccc5F)nc4n3CC3CC3)c(C)n12` [Example 15, ~{N}-[(1~{R})-1-[2-[7-[(1~{R}, 2~{R},4~{S})-2-amino-7-azabicyclo [2.2.1]heptane-7-carbonyl]-5-methoxy-3-methylimidazo [1,2-a]pyridin-2-yl]-1-(cyclopropylmethyl)pyrrolo[2,3-b]pyridin-6-yl]ethyl]-2-fluorobenzamide]: 297 nM; `CCc1ccc2cc(-c3nc4cc(C(=O)N5[C@H]6CC[C@@H]5[C@H](N)C6)cc(OC)n4c3C)n(CC3CC3C)c2n1` (some centres unmarked) [Example 503, [(1~{R},2~{R},4~{S})-2-amino-7-azabicyclo [2.2.1]heptan-7-yl]-[2-[6-ethyl-1-[(2-methylcyclopropyl)methyl]pyrrolo[2,3-b]pyridin-2-yl]-5-methoxy-3-methylimidazo[1,2-a]pyridin-7-yl]methanone]: 115 nM; `CS(=O)(=O)N(c1ccc2cc(-c3nc4cc(C(=O)N5[C@@H]6CC[C@@H](N)[C@H]5CC6)ccn4c3CC3CC3)n(CC3CC3)c2n1)C(F)F` [Example 436, ~{N}-[2-[7-[(1~{R},2~{R}, 5~{R})-2-amino-8-azabicyclo[3.2.1]octane-8-carbonyl]-3-(cyclopropylmethyl)imidazo [1,2-a]pyridin-2-yl]-1-(cyclopropylmethyl)pyrrolo [2,3-b]pyridin-6-yl]-~{N}-(difluoromethyl) methanesulfonamide]: 202 nM.

In the case of `COc1cc(C(=O)N2[C@H]3CC[C@@H]2[C@H](N)C3)cc2nc(-c3cc4ccc(N5CCCC(C)S5(=O)=O)nc4n3CC3CC3)c(C)n12` (some centres unmarked) [Example 454, [(1~{R},2~{R},4~{S})-2-amino-7-azabicyclo [2.2.1]heptan-7-yl]-[2-[1-(cyclopropylmethyl)-6-(6-methyl-1,1-dioxothiazinan-2-yl)pyrrolo [2,3-b]pyridin-2-yl]-5-methoxy-3-methylimidazo[1,2-a]pyridin-7-yl]methanone], the IC50 was found to be 145 nM. Then `COc1cc(C(=O)N[C@@H]2C[C@@H]3CC[C@H]2N3)cc2nc(-c3cc4ccc(N(C(F)F)S(C)(=O)=O)nc4n3CC3CC3)c(C)n12` [Example 312, N-[(1R,2R,4S)-7-azabicyclo[2.2.1]heptan-2-yl]-2-[1-(cyclopropylmethyl)-6-[difluoromethyl (methylsulfonyl)amino]pyrrolo[2,3-b]pyridin-2-yl]-5-methoxy-3-methyl-imidazo[1,2-a] pyridine-7-carboxamide], with 31200 nM; and `COc1cc(C(=O)N2C[C@H]3C[C@H](OC)[C@@H]2[C@@H]3N)cc2nc(-c3cc4ccc(N(C(F)F)S(C)(=O)=O)nc4n3CC3CC3)c(C)n12` [Example 372, N-[2-[7-[(1S,4R,6S,7R)-7-amino-6-methoxy-2-azabicyclo[2.2.1]heptane-2-carbonyl]-5-methoxy-3-methyl-imidazo [1,2-a]pyridin-2-yl]-1-(cyclopropylmethyl)pyrrolo [2,3-b]pyridin-6-yl]-N-(difluoromethyl) methanesulfonamide], with 2000 nM; and `CCCC(=O)N[C@H](C)c1ccc2cc(-c3nc4cc(C(=O)N5[C@H]6CC[C@@H]5[C@H](N)C6)cc(OC)n4c3C)n(CC3CC3)c2n1` [Example 90, ~{N}-[(1~{R})-1-[2-[7-[(1~{R},2~{R},4~{S})-2-amino-7-azabicyclo[2.2.1]heptane-7-carbonyl]-5-methoxy-3-methylimidazo [1,2-a]pyridin-2-yl]-1-(cyclopropylmethyl)pyrrolo [2,3-b]pyridin-6-yl]ethyl]butanamide], with 30.4 nM. Then `COc1cc(C(=O)N2[C@H]3CC[C@@H]2[C@H](N)C3)cc2nc(-c3cc4ccc([C@@H](C)NC(=O)c5c(F)cccc5F)nc4n3CC3CC3)c(C)n12` [Example 16, ~{N}-[(1~{R})-1-[2-[7-[(1~{R},2~{R},4~{S})-2-amino-7-azabicyclo [2.2.1]heptane-7-carbonyl]-5-methoxy-3-methylimidazo [1,2-a]pyridin-2-yl]-1-(cyclopropylmethyl)pyrrolo[2,3-b]pyridin-6-yl]ethyl]-2,6-difluorobenzamide], with 114 nM.
